Assay results: patent publication US9642808B2, “Extended release compositions comprising mycophenolate sodium and processes thereof” (PANACEA BIOTECH LIMITED, priority 2007, dated 2017)
Where two headings read alike, the source gives them in different places.

Legend:
[1] = cited from earlier work
[2] = 423 de novo kidney allograft recipients; cited from earlier work
[3] = pH-dependent solubility of the drug; assay type: physicochemical
From the text: The present invention provides a stable extended release single unit dosage form composition such as matrix tablets which could provide substantially linear drug release for a prolonged duration of time during the transit through varying pHs of the GIT.
The prior art formulation approaches lead to a pharmaceutical composition which has a suitable fast disintegration time but not necessarily a suitable dissolution rate of the active agent under acidic conditions, i.e. a multiparticulate composition in the form of a tablet with an extragranularly added disintegrant will rapidly disintegrate into granules but the dissolution of the drug substance from the composition and/or the disintegrated composition under acidic conditions may be unsuitable and, low due to the solubility properties of the active agent itself. The availability of an active agent with respect to absorption, i.e. entrance into the circulatory system, is dependant on the presence of the active agent in dissolved form as it is generally accepted that only dissolved substances are capable of passing the mucous membranes in the gastro-intestinal tract. Therefore, it is important that the dissolution of the active agent is suitably fast even under acidic conditions in order to enable absorption from the stomach so that the absorption of the active agent is continuous throughout the GIT, and the bioavailability is not compromised.

[4] = controlled de novo and maintenance renal studies

| SMILES | Adverse Events (%): Anemia [1, 4] [%] | Adverse Events (%): CMV infections [1, 4] [%] | Adverse Events (%): Constipation [1, 4] [%] | Adverse Events (%): Diarrhoea [1, 4] [%] | Adverse Events (%): Dyspepsia [1, 4] [%] | Adverse Events (%): Insomnia [1, 4] [%] | Adverse Events (%): Leukopenia [1, 4] [%] | Adverse Events (%): Nausea [1, 4] [%] | Adverse Events (%): Urinary Tract Infection [1, 4] [%] | Adverse Events (%): Vomiting [1, 4] [%] | incidence of GI adverse events [2] [%] | solubility ([3]; pH above 6.0) | solubility ([3]; pH below 6.0) | solubility in an acidic medium ([3]; pH of from about 1 to about 3) | Adverse Events (%): CMV infections ([1]; in vivo) [%] |
| --- | --- | --- | --- | --- | --- | --- | --- | --- | --- | --- | --- | --- | --- | --- | --- |
| COc1c(C)c2c(c(O)c1C/C=C(\C)CCC(=O)OCCN1CCOCC1)C(=O)OC2 [MMF, mycophenolate mofetil] | 21.6 | 20.2 | 38.0 | 24.8 | 22.5 | 23.5 | 19.2 | 29.1 | 29.1 | 20 | 77.1 |  |  |  |  |
| COc1c(C)c2c(c(O)c1C/C=C(\C)CCC(=O)O)C(=O)OC2 [MPS, mycophenolate sodium] | 21.9 |  | 39.5 | 23.5 | 19 | 23.8 | 20.5 | 27.1 | 33.3 | 23 | 79.8 | high solubility | poor solubility | substantially low solubility | 18.1 |
